Experimental data from publication PMC10537604, “Development and Assessment of 1,5–Diarylpyrazole/Oxime Hybrids Targeting EGFR and JNK–2 as Antiproliferative Agents: A Comprehensive Study through Synthesis, Molecular Docking, and Evaluation” (Molecules, 2023).

Tested on: Hela cell line
Assay: Cell cycle analysis, PI staining, flow cytometry
Type: cell-based, human
Settings: for cell cycle arrest phase: Hela, PI staining
Method: This analysis was applied to investigate the effects of tested compounds on cell cycle distribution and on cell-death associated DNA fragmentation. The Hela cell line was analyzed flow cytometrically after propidium iodide (PI) staining, following the treatment of compounds 8g and 8i.
The supernatant was transferred to falcon tube for each plate and each well was washed twice with 3 mL PBS, Trypsin 1 mL was added, and plates were incubated for 3 to 5 min at 37 degrees, then 3 mL of the medium was added to separate cells, cells were centrifuged for 5 min, and supernatant was decanted. Then, it was washed again with 3 mL PBS, and 10 mL of medium was added. Cells were immediately fixed in ice cold 70% ethanol overnight at −20 °C. On the day of the analysis, cells were washed ×3 with PBS and re-suspended in propidium iodide (PI) for 15 min at room temperature, protected from light. Cell-cycle analysis was performed using flowcytometric analysis (BD FACS melody) and data obtained from cell cycle distribution was analyzed using FSC-W (Watson model) to estimate the percentage of cells in G1, S, and G2.

SMILES	cell cycle arrest phase	percentage of Hela cells at G2 phase (IC50 concentration, 24 h) [%]	percentage of Hela cells at S phase (IC50 concentration, 24 h) [%]	percentage of Hela cells at G2 phase (48 h) [%]
COc1cc(/C(C)=N/O)ccc1OC(=O)c1cc(-c2ccc(Cl)cc2)n(-c2ccc(S(N)(=O)=O)cc2)n1 [Compound 8i, (E)–4–(1–(Hydroxyimino)ethyl)–2–methoxyphenyl 5–(4–chlorophenyl)–1–(4–sulfamoyl phenyl)–1H–pyrazole–3–carboxylate]	combined S phase and G2 phase arrest	18.2	59.4	–
COc1cc(/C(C)=N/O)ccc1OC(=O)c1cc(-c2ccc(C)cc2)n(-c2ccc(S(N)(=O)=O)cc2)n1 [Compound 8g, (E)–4–(1–(Hydroxyimino)ethyl)–2–methoxyphenyl 1–(4–sulfamoylphenyl)–5–p–tolyl–1H–pyrazole–3–carboxylate]	G2/M arrest	–	–	20.5
